Laboratory results as given in US6861542B1, “Dimer amidopropyl dimethyl quaternary compounds” (SurfaTech Corporation, priority 2004, dated 2005).

Assays:
[1] = Anionic compatibility test (titration of 10% sodium lauryl sulfate with 10% solids quat solution); type: physicochemical; conditions: 10% solids solution added to 100 ml of 10% sodium lauryl sulfate; for number of ml of solution A at the first point haze or precipitate was noted (end point): test stopped at 100 ml (fully compatible)
Experimental: The compounds evaluated were diluted to 10% solids with DI water before evaluation.
A solution of 10% b weight sodium lauryl sulfate was prepared. The sodium lauryl sulfate was obtained from Colonial Chemical in South Pittsburgh Tennessee.
Anionic Compatibility Test
100 ml of solution B was added to a 400 ml beaker. Solution A was slowly added until either a precipitate or haziness was noted. The number of ml of solution was recorded at the first point the haze of precipitate was noted. That point was noted as the end point. The higher the volume used to the end point the better the compatibility. The test is stopped at 100 ml at which point the product is considered fully compatible.

[2] = test system: hair; test: Half head conditioning study in commercial baby shampoo; type: in vivo; design: key: 1: no conditioning; 2: minimal conditioning; 3: measurable conditioning; 4: good conditioning; 5: excellent conditioning; conditions: 0.5% active by weight in commercial baby shampoo, 10 people, average rounded to nearest whole number
Experimental: The baby shampoo compounds were evaluated on 10 people with half head studies. The values reported were the average rounded to the nearest whole number. […] The scale used to evaluate was: [table]

Molecule | anionic compatibility rating [1] | number of ml of solution A at the first point haze or precipitate was noted (end point) [1] | Conditioning Value [2]
Dimer benzyl quat [Example 5] | Very | 88.2 mL | 5
Hydrogenated dimer benzyl quat [Example 6] | – | – | 5
Cetyl trimethyl benzyl ammonium chloride [reference compound] | Very Incompatible | 0.5 mL | –
Dimer glyceryl quat [Example 3] | Fully | 100.0 mL | 4

Second part, led by results:

anionic compatibility rating [1] | number of ml of solution A at the first point haze or precipitate was noted (end point) [1] | Molecule | Conditioning Value [2]
mildly compatible | 20.0 mL | CCCCCCCCCCCCCCCCCC(=O)NCCCN(C)C.Cl [Stearylamidopropyl dimethyl ammonium chloride, reference compound] | 1
Compatible | 58.9 mL | Dimer tri-methyl quat [Example 7] | 4
Fully | 100.0 mL | Hydrogenated dimer glyceryl quat [Example 4] | 4
Very Incompatible | 1.0 mL | CCCCCCCCCCCCCCCCCC[N+](C)(C)Cc1ccccc1.[Cl-] [Stearyl dimethyl denzalkonium chloride, reference compound] | –
Compatible | 59.6 mL | Hydrogenated dimer tri-methyl [Example 8] | 4
